In patent publication US20160185682A1, “NITRIFICATION INHIBITOR COMPOSITIONS AND METHODS FOR PREPARING THE SAME” (Dow AgroSciences LLC, priority 2014, published 2016):

What was measured:
[1] = assay type: physicochemical
Excerpt: (§1) In some embodiments of the present disclosure, in order to measure the diffusion of nitrification inhibitors through volatilization barriers and, therefore, provide diffusion constants to estimate the ultimate loss of nitrification inhibitors to volatilization, Fourier transform infrared spectroscopy operating in attenuated total reflectance mode (“ATR-FTIR”) can be employed to probe diffusion of nitrification inhibitors, such as, for example, nitrapyrin, through polymeric materials.
(§2) A Nicolet 4700 Fourier transform infrared spectrometer (“FTIR”) with SCFGG using attenuated total reflectance (“ATR”) accessory (“Specac”) was utilized in the studies presented herein. Nitrapyrin technical grade manufactured by Dow AgroSciences LLC was used in some of the experiments presented herein. […]
(§3) Kollidon VA64 was purchased as a vinyl pyrrolidone/vinyl acetate 60/40 copolymer from Sigma Aldrich. […] Film thickness was measured using a Dektak profilometer (Veeco). […]
(§4) Films were allowed to equilibrate in the FTIR chamber for thirty minutes before the experiments were started. […] A single-beam spectrum was acquired of the film for use as a background spectrum, after which absorbance spectra were continuously recorded throughout the experiment. Peak heights were determined using a macro and data were fit according to the model as described below. […]

[2] = ATR-FTIR diffusion of nitrapyrin through polymer film, diffusion constant fitted by Fick's second law model; assay type: physicochemical
Excerpt: as §1, §2, §3, §4

[3] = at 230 Celsius; cited from earlier work

Clc1cccc(C(Cl)(Cl)Cl)n1 [nitrapyrin, 2-chloro-6-(trichloromethyl)pyridine]
diffusion constant for nitrapyrin through polymer film (printed as 'partition coefficient') [1]: 10^−3-10^−2 μm^2/s | diffusion profile of nitrapyrin through film ([2]; Kollidon VA64 film, 30 μm, curve not well-fitting a standard diffusion model): slow through the film before it rapidly equilibrates | diffusion constant ([2]; Polyvinyl pyrollidone (K90) film): 0.1-1 μm^2/s | vapor pressure [3]: 2.8×10^−3 mm Hg
